In a polymer gas permeability compilation:

| Compound | CH4 permeability | CO2 permeability | H2 permeability | N2 permeability | O2 permeability |
| --- | --- | --- | --- | --- | --- |
| *C(=C(*)c1ccc([Si](c2ccccc2)(c2ccccc2)c2ccccc2)cc1)c1ccccc1 (repeat unit) | 5.58 Barrer | 78.8 Barrer | 51.7 Barrer | 2.78 Barrer | 12.1 Barrer |
| *C(=C(*)c1ccc2c(c1)C(C)(C)CC2(C)C)c1cc(F)cc(F)c1 (repeat unit) | 29100 Barrer | 36100 Barrer | 28500 Barrer | 13100 Barrer | 15200 Barrer |
| *C(=C(*)c1ccc2c(c1)C(C)(C)CC2(C)C)c1ccc(Br)cc1 (repeat unit) | 22400 Barrer | 32800 Barrer | 20700 Barrer | 9200 Barrer | 11400 Barrer |
| *C(=C(*)c1ccc2c(c1)C(C)(C)CC2(C)C)c1ccc(F)cc1 (repeat unit) | 34300 Barrer | 47000 Barrer | 33300 Barrer | 15600 Barrer | 17900 Barrer |
| *C(=C(*)c1ccc2c(c1)C(C)(C)CC2(C)C)c1ccccc1 (repeat unit) | 29100 Barrer | 38700 Barrer | 24800 Barrer | 11600 Barrer | 14400 Barrer |
| *Oc1ccc(S(=O)(=O)c2ccc(Oc3ccc(C(c4ccc(*)cc4)(C(F)(F)F)C(F)(F)F)cc3)cc2)cc1 (repeat unit) | 0.345 Barrer | 8.45 Barrer | 15.1 Barrer | 0.431 Barrer | 2.33 Barrer |
| *Oc1ccc(S(=O)(=O)c2ccc(Oc3ccc(C4(c5ccc(*)c(C)c5)CCCCC4)cc3C)cc2)cc1 (repeat unit) | 0.0393 Barrer | 1.4 Barrer | – | 0.0569 Barrer | 0.41 Barrer |
| *Oc1ccc(S(=O)(=O)c2ccc(Oc3ccc(Cc4ccc(*)cc4)cc3)cc2)cc1 (repeat unit) | 0.188 Barrer | 4.5 Barrer | – | 0.2 Barrer | 1.1 Barrer |
| *Oc1ccc(S(=O)(=O)c2ccc(Oc3ccc(Oc4ccc(*)cc4)cc3)cc2)cc1 (repeat unit) | 0.179 Barrer | 4.3 Barrer | – | 0.196 Barrer | 1.1 Barrer |
| *Oc1ccc(S(=O)(=O)c2ccc(Oc3ccc4cc(*)ccc4c3)cc2)cc1 (repeat unit) | 0.0366 Barrer | 1.5 Barrer | 7.25 Barrer | 0.0507 Barrer | 0.38 Barrer |
| *Oc1ccc(S(=O)(=O)c2ccc(Oc3ccc4ccc(*)cc4c3)cc2)cc1 (repeat unit) | 0.05 Barrer | 1.8 Barrer | 8.15 Barrer | 0.0735 Barrer | 0.5 Barrer |
| *Oc1ccc2c(c1)C1(CC2(C)C)CC(C)(C)c2ccc(OC(=O)c3ccc(C(*)=O)cc3)cc21 (repeat unit) | 4.22 Barrer | 55.7 Barrer | – | 2.98 Barrer | 13.4 Barrer |
| *Sc1ccc(*)cc1 (repeat unit) | 0.066 Barrer | 1.6 Barrer | – | 0.046 Barrer | 0.19 Barrer |
| *c1c(C)c(C(=O)O)c(C)c(N2C(=O)c3ccc(C(c4ccc5c(c4)C(=O)N(*)C5=O)(C(F)(F)F)C(F)(F)F)cc3C2=O)c1C (repeat unit) | 3.2 Barrer | 144 Barrer | 193 Barrer | 5.52 Barrer | 26.4 Barrer |
| *c1c(C)c(C)c(-n2c(=O)c3cc4oc5cc6c(cc5oc4cc3c2=O)C2(CC(C)(C)c3cc4oc5cc7c(=O)n(*)c(=O)c7cc5oc4cc32)CC6(C)C)c(C)c1C (repeat unit) | 77 Barrer | 1100 Barrer | 530 Barrer | 47 Barrer | 150 Barrer |
| *c1c(C)c(C)c(N2C(=O)c3ccc(Oc4c(C)ccc(C)c4Oc4ccc5c(c4)C(=O)N(*)C5=O)cc3C2=O)c(C)c1C (repeat unit) | 1.9 Barrer | 63 Barrer | 100 Barrer | 2.05 Barrer | 11 Barrer |
| *c1c(C)c(C)c(N2C(=O)c3ccc(Oc4c(C)cccc4Oc4ccc5c(c4)C(=O)N(*)C5=O)cc3C2=O)c(C)c1C (repeat unit) | 0.7 Barrer | 27 Barrer | 51 Barrer | 0.83 Barrer | 4.8 Barrer |
| *c1c(C)c(C)c(N2C(=O)c3ccc(Oc4cc(C(C)(C)C)cc(C)c4Oc4ccc5c(c4)C(=O)N(*)C5=O)cc3C2=O)c(C)c1C (repeat unit) | 2.2 Barrer | 67 Barrer | 110 Barrer | 2.5 Barrer | 13 Barrer |
| *c1c(C)c(C)c(N2C(=O)c3ccc(Oc4cc(C(C)(C)C)ccc4Oc4ccc5c(c4)C(=O)N(*)C5=O)cc3C2=O)c(C)c1C (repeat unit) | 3.1 Barrer | 71 Barrer | 91 Barrer | 2.55 Barrer | 12 Barrer |

| Compound | CH4 permeability | CO2 permeability | H2 permeability | N2 permeability | O2 permeability |
| --- | --- | --- | --- | --- | --- |
| *c1c(C)c(C)c(N2C(=O)c3ccc(Oc4cc(C)ccc4Oc4ccc5c(c4)C(=O)N(*)C5=O)cc3C2=O)c(C)c1C (repeat unit) | 0.47 Barrer | 20 Barrer | 41 Barrer | 0.59 Barrer | 3.5 Barrer |
| *c1c(C)c2c(c(N3C(=O)c4ccc(C(c5ccc6c(c5)C(=O)N(*)C6=O)(C(F)(F)F)C(F)(F)F)cc4C3=O)c1C)C(C)(C)CC2 (repeat unit) | 50.5 Barrer | 692 Barrer | – | 58.6 Barrer | 198 Barrer |
| *c1c(C)cc(-c2cc(C)c(-c3cc(C)c(*)c(C)c3)cc2C)cc1C (repeat unit) | 15 Barrer | 360 Barrer | 350 Barrer | 16.5 Barrer | 67 Barrer |
| *c1c(C)cc(-c2cc(C)c(-n3c(=O)c4cc5oc6cc7c(cc6oc5cc4c3=O)C3(CC(C)(C)c4cc5oc6cc8c(=O)n(*)c(=O)c8cc6oc5cc43)CC7(C)C)c3ccccc23)c2ccccc12 (repeat unit) | 215 Barrer | 2980 Barrer | 1310 Barrer | 130 Barrer | 432 Barrer |
| *c1c(C)cc(-c2cc(C)c(N3C(=O)c4cc5c(cc4C3=O)C3(C(C)C)c4ccccc4C5(C(C)C)c4cc5c(cc43)C(=O)N(*)C5=O)c3ccccc23)c2ccccc12 (repeat unit) | 190 Barrer | 2910 Barrer | 2170 Barrer | 145 Barrer | 550 Barrer |
| *c1c(C)cc(-c2cc(C)c(N3C(=O)c4cc5c(cc4C3=O)C3(C)CCC5(C)c4cc5c(cc43)C(=O)N(*)C5=O)c3ccccc23)c2ccccc12 (repeat unit) | 230 Barrer | 4300 Barrer | 3420 Barrer | 208 Barrer | 901 Barrer |
| *c1c(C)cc(-c2cc(C)c(N3C(=O)c4cc5c(cc4C3=O)C3(C)c4ccccc4C5(C)c4cc5c(cc43)C(=O)N(*)C5=O)c3ccccc23)c2ccccc12 (repeat unit) | 187 Barrer | 3350 Barrer | 2740 Barrer | 158 Barrer | 696 Barrer |
| *c1c(C)cc(Cc2cc(C)c(N3C(=O)c4ccc(-c5ccc6c(c5)C(=O)N(*)C6=O)cc4C3=O)c(C)c2)cc1C (repeat unit) | 0.818 Barrer | 22.4 Barrer | – | 0.913 Barrer | 4.73 Barrer |
| *c1c(C)cc(Cc2cc(C)c(N3C(=O)c4ccc(C(c5ccc6c(c5)C(=O)N(*)C6=O)(C(F)(F)F)C(F)(F)F)cc4C3=O)c(C)c2)cc1C (repeat unit) | 1.45 Barrer | 43.9 Barrer | – | 2.13 Barrer | 10.3 Barrer |
| *c1c(C)cc2c(c1C)C1c3ccccc3C2c2cc(C)c(N3C(=O)C4C5C=CC(C6C(=O)N(*)C(=O)C56)C4C3=O)c(C)c21 (repeat unit) | 69 Barrer | 1310 Barrer | 1600 Barrer | 71 Barrer | 308 Barrer |
| *c1c(C)cc2c(c1C)C1c3ccccc3C2c2cc(C)c(N3C(=O)c4ccc5c6c(ccc(c46)C3=O)C(=O)N(*)C5=O)c(C)c21 (repeat unit) | 122 Barrer | 1860 Barrer | 1480 Barrer | 97 Barrer | 390 Barrer |
| *c1cc(C(c2ccc(O)c(N3C(=O)c4cc5c(cc4C3=O)C3(C)c4ccccc4C5(C)c4cc5c(cc43)C(=O)N(*)C5=O)c2)(C(F)(F)F)C(F)(F)F)ccc1O (repeat unit) | 0.565 Barrer | 35 Barrer | 83.5 Barrer | 1.2 Barrer | 7.45 Barrer |
| *c1cc(C(c2ccc(O)c(N3C(=O)c4ccc(C(c5ccc6c(c5)C(=O)N(*)C6=O)(C(F)(F)F)C(F)(F)F)cc4C3=O)c2)(C(F)(F)F)C(F)(F)F)ccc1O (repeat unit) | 0.08 Barrer | 9.9 Barrer | 35 Barrer | 0.4 Barrer | 2.6 Barrer |
| *c1cc(C)c(C)c(N2C(=O)c3ccc(Oc4cc(C(C)(C)C)ccc4Oc4ccc5c(c4)C(=O)N(*)C5=O)cc3C2=O)c1C (repeat unit) | 2.5 Barrer | 63 Barrer | 85 Barrer | 2.2 Barrer | 11 Barrer |
| *c1cc(C)c(C)c(N2C(=O)c3ccc(Oc4cc(C)ccc4Oc4ccc5c(c4)C(=O)N(*)C5=O)cc3C2=O)c1C (repeat unit) | 0.57 Barrer | 22 Barrer | 41 Barrer | 0.65 Barrer | 3.9 Barrer |
| *c1cc(C)c(N2C(=O)c3ccc(C(c4ccc5c(c4)C(=O)N(*)C5=O)(C(F)(F)F)C(F)(F)F)cc3C2=O)c(C)c1 (repeat unit) | 0.349 Barrer | 17.9 Barrer | – | 0.499 Barrer | 3.53 Barrer |
| *c1cc2c(cc1C)-c1cc(C)c(N3C(=O)c4cc5c(cc4C3=O)S(=O)(=O)c3cc4c(cc3S5(=O)=O)C(=O)N(*)C4=O)cc1S2(=O)=O (repeat unit) | 0.59 Barrer | 24 Barrer | – | 0.7 Barrer | – |
| *c1cc2c(cc1C)-c1cc(C)c(N3C(=O)c4ccc(-c5ccc6c(c5)C(=O)N(*)C6=O)cc4C3=O)cc1S2(=O)=O (repeat unit) | 0.037 Barrer | 2.74 Barrer | – | 0.0763 Barrer | 0.577 Barrer |
